Data set [1] has as its target T1, rabbit reticulocyte 15-LO (Oryctolagus cuniculus, UniProt P12530).
T1 construct: Fifteen-lipoxygenase was obtained from phenylhydrazine-treated rabbits and purified per the method of Rapoport; from tissue; host or cells: reticulocytes of phenylhydrazine-treated rabbits
T1 sequence (P12530 1-663): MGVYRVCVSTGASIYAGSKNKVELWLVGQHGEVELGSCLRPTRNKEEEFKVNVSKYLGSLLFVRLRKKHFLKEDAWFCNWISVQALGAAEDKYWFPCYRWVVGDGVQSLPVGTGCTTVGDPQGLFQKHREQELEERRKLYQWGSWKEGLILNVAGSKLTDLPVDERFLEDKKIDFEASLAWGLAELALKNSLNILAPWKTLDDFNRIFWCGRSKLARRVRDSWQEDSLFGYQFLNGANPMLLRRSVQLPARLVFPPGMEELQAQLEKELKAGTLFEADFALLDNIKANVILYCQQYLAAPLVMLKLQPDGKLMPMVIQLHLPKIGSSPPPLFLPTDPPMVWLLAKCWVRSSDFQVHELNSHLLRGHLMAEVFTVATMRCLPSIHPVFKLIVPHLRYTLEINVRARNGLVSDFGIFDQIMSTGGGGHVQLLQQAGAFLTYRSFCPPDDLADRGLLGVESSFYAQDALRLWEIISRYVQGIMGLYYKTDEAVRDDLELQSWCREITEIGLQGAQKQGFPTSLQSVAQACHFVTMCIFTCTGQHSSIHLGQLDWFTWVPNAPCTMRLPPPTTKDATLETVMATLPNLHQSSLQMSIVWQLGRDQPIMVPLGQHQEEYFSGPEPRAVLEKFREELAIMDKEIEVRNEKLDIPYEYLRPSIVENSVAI
Briefly: Rabbit Reticulocyte 15-LO Assay (h15LO). Format: biochemical. Conditions: Table 2; for IC50: 2U rabbit reticulocyte 15-LO, 174 μM linoleic acid, 15 minutes at 4° C.; for h15LO, value given as bare %: concentration not given. The gist of the method: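 Purified rabbit reticulocyte 15-LO (2U) incubated with inhibitor and 174 μM linoleic acid in PBS with 0.2% Na cholate for 15 minutes at 4° C. 13-HPODE quantified by peak area against 13-HODE standard curve; % inhibition relative to uninhibited reaction.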

A word on the melting point: it is the temperature, or range, at which the solid turns liquid. One may read the IC50 as the concentration at which inhibition is half-maximal. A lower IC50 goes with inhibition by little substance. For `COc1ccc(C(=O)Nc2ccccc2)cc1NS(=O)(=O)c1ccc(C(F)(F)F)cc1` [Example 128, 3-(4-Trifluoromethyl-benzenesulfonylamino)-4-methoxy-N-phenyl-benzamide], the melting point fell in the range of 197 to 198 °C. In data set [1], the IC50 was 54 nM.
For `CCCCS(=O)(=O)Nc1cc(C(=O)Nc2ccccc2)ccc1OC` [Example 129, 3-(Butane-1-sulfonylamino)-4-methoxy-N-phenyl-benzamide], in that order: 182 to 183 °C and 79 nM.
Turning to `COc1ccc(C(=O)Nc2ccccc2)cc1NS(=O)(=O)c1cccc2cccnc12` [Example 130, 3-(Quinoline-8-sulfonylamino)-4-methoxy-N-phenyl-benzamide], the melting point lay in the range of 187 to 188 °C. In data set [1], this compound had an IC50 of 402 nM.
For `COc1ccc(C(=O)Nc2ccccc2)cc1NS(=O)(=O)c1sc(NC(C)=O)nc1C` [Example 131, 3-(2-Acetylamino-4-methylthiazole-5-sulfonylamino)-4-methoxy-N-phenyl-benzamide] the same measures were 260 to 261 °C and 609 nM.
For `COc1ccc(C(=O)Nc2ccccc2)cc1NS(=O)(=O)c1cc(Cl)sc1Cl` [Example 132, 3-(2,5-Dichlorothiophene-3-sulfonylamino)-4-methoxy-N-phenyl-benzamide] the same measures were 189 to 190 °C and 115 nM.
For `COc1ccc(C(=O)Nc2ccccc2)cc1NS(=O)(=O)c1cccc2ccccc12` [Example 133, 3-(Naphthalene-1-sulfonylamino)-4-methoxy-N-phenyl-benzamide], in that order: 212 to 213 °C and 58 nM.
`CCS(=O)(=O)Nc1cc(C(=O)Nc2ccccc2)ccc1OC` [Example 134, 3-Ethanesulfonylamino-4-methoxy-N-phenyl-benzamide]: the melting point was in the range of 175 to 177 °C. The compound further yielded an IC50 in data set [1] of 137 nM.
For `COc1ccc(C(=O)Nc2ccccc2)cc1NS(=O)(=O)Cc1ccccc1` [Example 135, 3-Phenylmethanesulfonylamino-4-methoxy-N-phenyl-benzamide], in that order: 216 °C and 63 nM.
As for `COc1ccc(C(=O)Nc2ccccc2)cc1NS(=O)(=O)c1ccc(Cl)c(Cl)c1` [Example 136, 3-(3,4-Dichloro-benzenesulfonylamino)-4-methoxy-N-phenyl-benzamide], the melting point was in the range of 191 to 193 °C. The compound also registered a 50% inhibitory concentration (IC50) in data set [1] of 48 nM.
For `COc1ccc(C(=O)Nc2ccccc2)cc1NS(=O)(=O)c1ccc(F)cc1F` [Example 137, 3-(2,4-Difluoro-benzenesulfonylamino)-4-methoxy-N-phenyl-benzamide] the same measures were 198 to 200 °C and 151 nM.
For `COc1ccc(C(=O)Nc2ccccc2)cc1NS(=O)(=O)c1cccc(C)c1` [Example 138, 3-(Toluene-3-sulfonylamino)-4-methoxy-N-phenyl-benzamide] the same measures were 195 to 197 °C and 28 nM.
Consider `COc1ccc(C(=O)Nc2ccccc2)cc1NS(=O)(=O)c1ccc(NC(C)=O)cc1` [Example 139, 3-(4-Acetylamino-benzenesulfonylamino)-4-methoxy-N-phenyl-benzamide], for which the melting point was in the range of 250 to 251 °C. The same compound registered an IC50 in data set [1] of 104 nM.
For `COc1ccc(C(=O)Nc2ccccc2)cc1NS(=O)(=O)c1cn(C)cn1` [Example 141, 3-(1-Methyl-1H-imidazole-4-sulfonylamino)-4-methoxy-N-phenyl-benzamide], in that order: 250 to 252 °C and 582 nM.
The compound `COc1ccc(C(=O)Nc2ccccc2)cc1NS(=O)(=O)c1cccs1` [Example 142, 3-(Thiophene-2-sulfonylamino)-4-methoxy-N-phenyl-benzamide] yielded a melting point of 180 to 183 °C. The compound further yielded an IC50 in data set [1] of 12 nM.
The compound `COc1ccc(C(=O)Nc2ccccc2)cc1NS(=O)(=O)c1cccc2c(N(C)C)cccc12` [Example 143, 3-(5-Dimethylaminonaphthalene-1-sulfonylamino)-4-methoxy-N-phenyl-benzamide] showed a melting point of 231 to 232 °C. The midpoint of inhibition in data set [1], the IC50, lay at 25 nM.
For `COc1ccc(C(=O)Nc2ccccc2)cc1OC(=O)Oc1ccccc1` [Example 144, 2-Methoxy-5-phenylcarbamoyl-carbonic acid-phenyl ester phenyl ester] the same measures were 152 to 153 °C and 1190 nM.
`Nc1cc(C(=O)Nc2ccc(F)cc2)ccc1OC(F)(F)F` [Example 146, 3-Amino-4-trifluoromethoxy-N-(4-fluoro-phenyl)-benzamide]: the melting point is 139 to 140 °C. The “h15LO, value given as bare %” value in data set [1] amounted to 35.29%.
`COC(=O)c1cccc(NC(=O)c2ccc(OC)c(N)c2)c1` [Example 149, 3-(3-Amino-4-methoxy-benzoylamino)-benzoic Acid Methyl Ester] had a melting point of 160 to 162 °C. In data set [1], this compound yielded an IC50 of 330 nM.
For `O=C(Nc1ccc(F)cc1)c1ccc(OC(F)(F)F)c(NC(=S)Nc2cc(Cl)cc(Cl)c2)c1` [Example 163, 3-[3-(3,5-Dichloro-phenyl)-thioureido]-4-trifluoromethoxy-N-(4-fluoro-phenyl)-benzamide], in that order: 165 to 166 °C and 629 nM.
For `O=C(Nc1ccc(F)cc1)c1ccc(OC(F)(F)F)c(NC(=S)Nc2cccc(C(F)(F)F)c2)c1` [Example 164] the same measures were 153 to 154 °C and 1590 nM.
On to `CCCCCCCCCCCCS(=O)(=O)Nc1cc(C(=O)Nc2ccc(Cl)c(Cl)c2)ccc1OC` [Example 194, 3-(Dodecane-1-sulfonylamino)-4-methoxy-N-(3,4-dichloro-phenyl)-benzamide], for which the melting point was 151 to 152 °C. The “h15LO, value given as bare %” value in data set [1] turned out to be 93.61%.
For the compound `COc1ccc(C(=S)Nc2ccccc2)cc1NS(=O)(=O)c1cc(Cl)cc(Cl)c1` [Example 208, 3-(3,5-Dichloro-benzenesulfonylamino)-4-methoxy-N-phenyl-thiobenzamide], the melting point lay within 206 to 208 °C. In data set [1], the “h15LO, value given as bare %” value worked out at 98.52%.
For `COc1ccc(CNc2ccccc2)cc1NS(=O)(=O)c1cc(Cl)cc(Cl)c1` [Example 209, 3,5-Dichloro-N-(2-methoxy-5-phenylaminomethyl-phenyl)-benzenesulfonamide] the same measures were 105 to 108 °C and 80.94%.
Regarding `COc1ccc(C(=O)Nc2ccccc2)cc1NC(=O)CC(=O)OCc1ccccc1` [Example 252, (2-Methoxy-5-phenylcarbamoyl-phenylcarbamoyl)-acetic acid phenylmethyl Ester], the melting point fell in the range of 168 to 171 °C. Moreover, in data set [1], the “h15LO, value given as bare %” value worked out at 43%.
For `COc1ccc(C(=O)Nc2ccccc2)cc1NCCc1cccc(C(F)(F)F)c1` [Example 253, 4-Methoxy-N-phenyl-3-[2-(3-trifluoromethyl-phenyl)-ethylamino]-benzamide], in that order: 142 to 144 °C and 60.56%.
In turn, `COc1ccc(C(=O)Nc2ccccc2)cc1NC(=NC#N)Nc1cc(Cl)cc(Cl)c1` [Example 256, 3-[[(Cyanoimino)[(3,5-dichlorophenyl)amino]methyl]amino]-4-methoxy-N-phenyl-benzamide] had a melting point of 225 to 227 °C. In data set [1], the “h15LO, value given as bare %” value is listed as 45%.
For `COc1ccc(C(=O)Nc2ccccc2)cc1NC(=O)C(O)c1ccccc1` (stereo not drawn) [Example 257, 3-(2-Hydroxy-2-phenyl-acetylamino)-4-methoxy-N-phenyl-benzamide] the same measures were 173 to 175 °C and 61%.
